Reference: EP4707263A1, “FLUORINATING AGENT AND FLUORINATION METHOD” (Daikin Industries, Ltd., priority 2024, dated 2025)

Assay: pKa (acid dissociation constant) determined by neutralization titration
Type: physicochemical
Settings: acid dissociation constant at 25°C in water

pKa: 16
SMILES: CO [Base B-2, KOMe]
